Data as given in ChEMBL document CHEMBL2034833, “Synthesis of chalcone-amidobenzothiazole conjugates as antimitotic and apoptotic inducing agents” (Bioorg Med Chem, 2012).

Key:
SF-268 = assay: Growth inhibition of human SF268 cells after 48 hrs by sulforhodamine B assay; assay type: functional; details: SF-268, 48 h
SK-OV-3 = assay: Growth inhibition of human SKOV3 cells after 48 hrs by sulforhodamine B assay; assay type: functional; details: SK-OV-3, 48 h
MCF7 = assay: cells; details: Homo sapiens, MCF7, 48 h
Description: Cytotoxicity against human MCF7 cells after 48 hrs by MTT assay

HT-29 = assay: Cytotoxicity against human HT-29 cells after 48 hrs by MTT assay; assay type: functional, cell-based; details: HT-29, 48 h, read-out: IC50
SR = assay: Growth inhibition of human SR cells after 48 hrs by sulforhodamine B assay; assay type: functional
ACHN = assay: Growth inhibition of human ACHN cells after 48 hrs by sulforhodamine B assay; assay type: functional
HCT-116 = assay: Growth inhibition of human HCT116 cells after 48 hrs by sulforhodamine B assay; assay type: functional; details: HCT-116, 48 h
OVCAR-5 = assay: Growth inhibition of human OVCAR5 cells after 48 hrs by sulforhodamine B assay; assay type: functional; details: OVCAR-5, 48 h
HCT-15 = assay: Growth inhibition of human HCT15 cells after 48 hrs by sulforhodamine B assay; assay type: functional; details: HCT-15, 48 h
UACC-62 = assay: Growth inhibition of human UACC62 cells after 48 hrs by sulforhodamine B assay; assay type: functional; details: UACC-62, 48 h
NCI/ADR-RES = assay: Growth inhibition of human NCI/ADR-RES cells after 48 hrs by sulforhodamine B assay; assay type: functional
A549 [1] = assay: Cell cycle arrest in human A549 cells assessed as cell accumulation at subG1 phase at 4 uM after 48 hrs by propidium iodide staining based flow cytometry (reference value: […]); assay type: functional
Hs-578T = assay: Growth inhibition of human Hs578T cells after 48 hrs by sulforhodamine B assay; assay type: functional
EKVX = assay: Growth inhibition of human EKVX cells after 48 hrs by sulforhodamine B assay; assay type: functional
BT-549 = assay: Growth inhibition of human BT549 cells after 48 hrs by sulforhodamine B assay; assay type: functional; details: BT-549, 48 h
A549 [2] = assay: Induction of apoptosis in human A549 cells assessed as late apoptotic cells at 2 uM after 48 hrs by annexin-V FITC/propidium iodide staining based FACS analysis; assay type: functional
SN12C = assay: Growth inhibition of human SN12C cells after 48 hrs by sulforhodamine B assay; assay type: functional
T47D = assay: Growth inhibition of human T47D cells after 48 hrs by sulforhodamine B assay; assay type: functional
A498 = assay: Growth inhibition of human A498 cells after 48 hrs by sulforhodamine B assay; assay type: functional; details: A498, 48 h
A549 [3] = assay: Cell cycle arrest in human A549 cells assessed as cell accumulation at subG1 phase at 2 uM after 48 hrs by propidium iodide staining based flow cytometry (reference value: […]); assay type: functional
MDA-MB-435 = assay: Growth inhibition of human MDA-MB-435 cells after 48 hrs by sulforhodamine B assay; assay type: functional; details: MDA-MB-435, 48 h
[4] = Inhibition of tubulin polymerization at 3 uM after 1 hr by fluorescence assay
IGROV-1 = assay: Growth inhibition of human IGROV1 cells after 48 hrs by sulforhodamine B assay; assay type: functional; details: IGROV-1, 48 h
786-0 = assay: Growth inhibition of human 786-0 cells after 48 hrs by sulforhodamine B assay; assay type: functional; details: 786-0, 48 h
NCI-H23 = assay: Growth inhibition of human NCI-H23 cells after 48 hrs by sulforhodamine B assay; assay type: functional; details: NCI-H23, 48 h
A-375 = assay: Cytotoxicity against human A375 cells after 48 hrs by MTT assay; assay type: functional, cell-based; details: A-375, 48 h
CAKI-1 = assay: Growth inhibition of human CAKI-1 cells after 48 hrs by sulforhodamine B assay; assay type: functional; details: CAKI-1, 48 h
SK-MEL-28 = assay: Growth inhibition of human SK-MEL-28 cells after 48 hrs by sulforhodamine B assay; assay type: functional; details: SK-MEL-28, 48 h
A549 [5] = assay: Induction of apoptosis in human A549 cells assessed as early apoptotic cells at 2 uM after 48 hrs by annexin-V FITC/propidium iodide staining based FACS analysis; assay type: functional
[6] = Inhibition of tubulin polymerization after 1 hr by fluorescence assay
A549 [7] = assay: Induction of apoptosis in human A549 cells assessed as necrotic cells at 2 uM after 48 hrs by annexin-V FITC/propidium iodide staining based FACS analysis; assay type: functional
NCI-H522 = assay: Growth inhibition of human NCI-H522 cells after 48 hrs by sulforhodamine B assay; assay type: functional; details: NCI-H522, 48 h
DU-145 = assay: Growth inhibition of human DU145 cells after 48 hrs by sulforhodamine B assay; assay type: functional; details: DU-145, 48 h
KM12 = assay: Growth inhibition of human KM12 cells after 48 hrs by sulforhodamine B assay; assay type: functional; details: KM12, 48 h
A549 [8] = assay: Cell cycle arrest in human A549 cells assessed as cell accumulation at G2/M phase at 4 uM after 48 hrs by propidium iodide staining based flow cytometry (reference value: 23.75%); assay type: functional
NCI-H226 = assay: Growth inhibition of human NCI-H226 cells after 48 hrs by sulforhodamine B assay; assay type: functional; details: NCI-H226, 48 h
OVCAR-4 = assay: Growth inhibition of human OVCAR4 cells after 48 hrs by sulforhodamine B assay; assay type: functional; details: OVCAR-4, 48 h
A549 [9] = assay: cells; details: Homo sapiens, A549, 48 h
Description: Cytotoxicity against human A549 cells after 48 hrs by MTT assay

Malme-3M = assay: Growth inhibition of human MALME-3M cells after 48 hrs by sulforhodamine B assay; assay type: functional

## COc1ccc(/C=C/C(=O)c2cc(OC)c(OC)c(OC)c2)cc1OCC(=O)Nc1nc2ccc(OC(F)(F)F)cc2s1
SF-268
  GI50: 1200 nM
SK-OV-3
  GI50: 2160 nM
MCF7
  IC50: 3.3 µM
HT-29
  IC50: 1100 nM
SR
  GI50: 390 nM
ACHN
  GI50: 1620 nM
HCT-116
  GI50: 1430 nM
OVCAR-5
  GI50: 4.76 µM
HCT-15
  GI50: 400 nM
UACC-62
  GI50: 9.52 µM
NCI/ADR-RES
  GI50: 490 nM
A549 [1]
  Activity: 3.21%
Hs-578T
  GI50: 3.08 µM
EKVX
  GI50: 5.11 µM
BT-549
  GI50: 2710 nM
A549 [2]
  Activity: 74.9%
SN12C
  GI50: 1740 nM
T47D
  GI50: 3.08 µM
A498
  GI50: 7.4 µM
A549 [3]
  Activity: 4.5%
MDA-MB-435
  GI50: 300 nM
[4]
  inhibition: 63.1%
IGROV-1
  GI50: 2540 nM
786-0
  GI50: 2260 nM
NCI-H23
  GI50: 2150 nM
A-375
  IC50: 2400 nM
CAKI-1
  GI50: 2200 nM
SK-MEL-28
  GI50: 3.31 µM
A549 [5]
  Activity: 1.3%
[6]
  IC50: 5.2 µM
A549 [7]
  Activity: 6.2%
NCI-H522
  GI50: 670 nM
DU-145
  GI50: 1560 nM
KM12
  GI50: 1510 nM
A549 [8]
  Activity: 83.21%
NCI-H226
  GI50: 3.35 µM
OVCAR-4
  GI50: 2070 nM
A549 [9]
  IC50: 900 nM
Malme-3M
  GI50: 2690 nM
